How the values were obtained:
[1] = cited from earlier work
immune response = details: 'thought to be'; cited from earlier work
[2] = test system: canines with keratoconjunctivitis sicca; assay: Clinical trial of topical tacrolimus in treatment of canine keratoconjunctivitis sicca; assay type: in vivo, dogs; details: twice daily, 30 days
Method: A population of canines with keratoconjunctivitis sicca was subject to a method of treatment with a topical tacrolimus solution in order to evaluate the therapeutic effectiveness of the drug. Materials • 0.02% tacrolimus was prepared in a physiologically acceptable ointment base. • 0.02% tacrolimus was prepared in a physiologically acceptable oil base. • Schirmer Tear Test strips were employed to measure tearing. • Petrolatum eye ointment was used for patient comfort. • Commercial eyewash was used as a cleaning solution. The test group consisted of 26 dogs of various breeds from different geographic areas. […] 24 dogs were administered a dose of tacrolimus in either ointment or oil base twice daily in both eyes for 30 days. 2 dogs received the same treatment in only one eye. Petrolatum ointment was administered to some dogs as necessary for comfort. Debris was flushed from the eyes as necessary using a commercial eyewash preparation. The eyes were examined and observations recorded at days 7-14 and again at 21-30 days during treatment.

For C=CC[C@@H]1/C=C(\C)C[C@H](C)C[C@H](OC)[C@H]2O[C@@](O)(C(=O)C(=O)N3CCCC[C@H]3C(=O)O[C@H](/C(C)=C/[C@@H]3CC[C@@H](O)[C@H](OC)C3)[C@H](C)[C@@H](O)CC1=O)[C@H](C)C[C@@H]2OC [Tacrolimus], the “solubility in alcohols and some oils” value ([1]; alcohols and some oils) is given as “soluble”, the solubility in water ([1]; water) is given as “practically insoluble” and the “potency relative to cyclosporine on a per gram basis” value (immune response) is given as “up to 100 times”. For the same compound, the “signs of ocular irritation” value ([2]; 0.02% tacrolimus in ointment or oil base, topical) was “None of the subjects exhibited signs of ocular irritation”, the “treated eyes exhibiting improvement” value ([2]; 0.02% tacrolimus in ointment or oil base, topical, 26 dogs with KCS) was 96% and the “treated eyes exhibiting improved Schirmer Tear Test (STT) values” ([2]; 0.02% tacrolimus in ointment or oil base, topical, 60 second STT) was 92%. For the same compound, the “additional effect: corneal scarring and pigmentation” value ([2]; 0.02% tacrolimus topical) was “reduction in corneal scarring and pigmentation”, the “additional effect: inflammation of the conjunctiva” value ([2]; 0.02% tacrolimus topical) was “reduction in inflammation of the conjunctiva” and the “effectiveness in dogs, including those where cyclosporine had previously failed” value ([2]; 0.02% tacrolimus topical) was “effective in some dogs for whom cyclosporine treatment had previously failed”.
